Test results taken from patent US20040259096A1, “Receptor capture assay” (priority 2001, published 2004).

Tests used:
[1] = tested on: Ah receptor; experiment: Biotinylated ARNT assay, neutravidin capture, PCR and gel densitometry; type: biochemical; settings: 1 μl of 1 nM beta-naphthoflavone
Description: Activation of the Ah receptor with dose was performed in a microfuge tube containing 50 μl of Ah receptor preparation, 1 μl of 200 μg/ml biotinylated ARNT, and 1 μl of 1 nM beta-naphthoflavone and incubated for 1 hr at 30° C. To minimize non-specific interactions, 1-2 μg of salmon sperm DNA was added to the activated complex, along with NaCl to a final concentration of 60 mM. After 10 min at room temperature, varying amounts of nucleic acid-tracer (50-500 fmole) was added, and the reaction allowed to incubate for an additional 10 min at room temperature. The reaction mix (40 μl) was transferred to a neutravidin-coated plate and incubated for 30 min on a Wallac plate shaker at room temperature. The wells were washed five times with Wash Buffer B, soaking wells for 3 min with wash buffer during each cycle, followed by two washes with ultrapure water.
For PCR analysis, 50 μl of PCR reagent was added and the well contents were subjected to 28 cycles of PCR amplification, using GeneAmp PCR System 2700 (Applied Biosystems, Foster City, Calif.). PCR was performed using 50 μl of PCR Master Mix (Promega, Madison, Wis.) diluted to the appropriate concentration with nuclease-free water and 1 μM of each primer was used per PCR reaction. Following the addition of PCR mix, the microtiter strip was sealed with adhesive and placed in the thermocylcer. Samples were initially heated to 95° C. for 5 min to denature the Ah receptor/ARNT complex and free the nucleic acid for PCR analysis then subjected to 28 cycles of 94° C., 30 sec, 52° C., 30 sec, 72° C., 45 sec, followed by 72° C. for 5 min, then cooling to 4° C.
PCR product, 20 μl, was analyzed by 4% agarose gel electrophoresis, with PCR product visualized under UV light by ethidium bromide staining UV light-illuminated gels were photographed using a Polaroid MP 4 Land Camera and Polaroid Type 55 film. Transmission densitometry with film negatives was performed and areas under the peak calculated using arbitrary units.

[2] = tested on: Ah receptor; experiment: Detecting activated Ah receptor in nuclear extracts of treated Hepa 1c1c7 cells; type: cell-based, murine; settings: Hepa 1c1c7 cells treated with 10 μM BNF for 1 hour
Description: Hepa 1c1c7 cells were grown until nearly confluent in Dulbecco's modified Eagle's medium and 8% fetal bovine serum. The cells were treated with 10 μM beta-naphthoflavone (BNF) in DMSO for 1 hour. The cells were then harvested after two washes with ice-cold PBS by centrifugation at 1000×g. The cells were then suspended in 5 packed cell pellet volumes of 10 mM Hepes, pH 7.5 and allowed to stand for 10 min.
The suspended cells were again collected by centrifugation and resuspended in two packed cell pellet volumes of 25 mM Hepes, pH 7.5, 3 mM MgCl2, 1 mM DTT and then lysed with 10 strokes of a Kontes all glass Dounce homogenizer (B type pestle). The resulting homogenate was checked microscopically to confirm cell lysis and then centrifuged for 10 min at 1000×g to pellet the nuclei.
The nuclear extract was prepared as follows. The nuclei were resuspended and incubated for 30 min in 25 mM Hepes, pH 7.5, 3 mM MgCl2, 1 mM DTT containing 0.4 M KCl. The suspension was occasionally vortexed during the 30 min incubation and centrifuged in a microfuge at high speed. Glycerol was added to the supernatant to a 10% concentration. The nuclear extract was diluted to lower the salt concentration prior to testing. The diluent was Hepa 1c1c7 cell extract that was previously boiled in order to inactivate protein factors and cooled to room temperature. […]

[3] = tested on: AhR; experiment: Receptor capture assay, real-time PCR, rodent cytosol as source of AhR; type: biochemical
Description: A set of calibrators consisting of 5000, 2500, 1250, […], 313, 156, and 78 parts per trillion (ppt or pg/ml) 2,3,7,8-tetrachlorodibenzo-p-dioxin (TCDD) was prepared in methanol. In addition to TCDD a set of calibrators for AhR agonist, beta-naphthoflavone (BNF) was prepared and analyzed in the assay. Separately, 25 ul of 1:50,000 dilution of 10 uM stock nucleic acid-tracer was added per 1 ml of rodent cytosol, which was the source of AhR, and was aliquoted into glass tubes. The standards were diluted 1:20 into 50-100 ul of rodent cytosol, and incubated for 1-2 hr at room temperature to 37° C. Following incubation, 40 to 100 ul of the reaction was transferred to each well of the antibody-coated Capture Strip and incubated on a shaking platform for 30 min to 1 hr at room temperature. The Capture Strips were washed 5 times with Wash Buffer B, and aspirated; optionally soaking wells for 30 sec-5 min with wash buffer during each cycle. Taqman® Universal PCR Master Mix, primers, and Taqman® probe (Applied Biosystems, Calif.) were added, and adhesive cover applied. PCR was performed and analyzed using an ABI PRISM® 7700, using default settings: 50° C., 2 min, 95° C. 10 min, and 40 cycles of [95° C., 15 sec, 60° C., 60 sec]. A threshold cycle (Ct) was determined for each reaction The Ct represents the PCR cycle at which an increase in reporter fluorescence above baseline signal can first be detected.

Row | Structure (SMILES) | area under the peak, PCR product densitometry ([1]; Nucleic Acid-Tracer 63 fmol) [arbitrary units] | area under the peak, PCR product densitometry ([1]; Nucleic Acid-Tracer 125 fmol) [arbitrary units] | area under the peak, PCR product densitometry ([1]; Nucleic Acid-Tracer 250 fmol) [arbitrary units] | area under the peak, PCR product densitometry ([1]; Nucleic Acid-Tracer 500 fmol) [arbitrary units] | PCR-amplified DNA over nuclear extracts from DMSO-treated cells [2] | Ct Values ([3]; TCDD 78 ppt) | Ct Values ([3]; TCDD 156 ppt) | Ct Values ([3]; TCDD 313 ppt) | Ct Values ([3]; TCDD 1250 ppt) | Ct Values ([3]; TCDD 2500 ppt) | Ct Values ([3]; TCDD 5000 ppt)
1 | O=c1cc(-c2ccccc2)oc2ccc3ccccc3c12 [BNF, beta-naphthoflavone] | 459 | 349 | 392 | 392 | significant and reproducible increase in PCR-amplified DNA |  |  |  |  |  | 
2 | Clc1cc2c(cc1Cl)Oc1cc(Cl)c(Cl)cc1O2 [TCDD, 2,3,7,8-tetrachlorodibenzo-p-dioxin] |  |  |  |  |  | 24.52 | 23.81 | 23.16 | 21.3 | 20.5 | 20.28
